Source: patent publication US20190072541A1, “BIOMARKERS FOR TREATMENT OF ALOPECIA AREATA” (THE TRUSTEES OF COLUMBIA UNIVERSITY IN THE CITY OF NEW YORK, priority 2015, published 2019)

Key:
[1] = system: ALADIN CTL, IFN and KRT signatures; assay: Skin biopsy gene expression / ALADIN scores in ruxolitinib trial; assay type: in vivo, human
Text: Biopsies and peripheral blood were obtained at baseline and after 12 weeks for immune monitoring and molecular studies. Several patients provided additional biopsies at intermediate time points during the course of treatment, and one patient provided an additional sample at week 24. Tissues specimens were fixed and stored in PAXgene Tissue Containers. Total RNA was extracted from skin biopsy specimens harvested during the course of the clinical trial using the PAXgene tissue miRNA kit. Library prep was performed for microarray analysis using Ovation RNA Amplification System V2 and Biotin Encore kits (NuGen Technologies, Inc., San Carlos, Calif.). Samples were subsequently hybridized to Human Genome U133 Plus 2.0 chips (Affymetrix, Santa Clara, Calif.) and scanned at the Yale Center for Genome Analysis. Library prep and microarray hybridization of RNA extracted from skin biopsies from three healthy controls were performed together with the samples from the treated patients for a total of 31 samples. Gene expression analyses included calculation of ALADIN scores, differential expression analysis of the expression levels for the identification of gene expression signatures, principal component analysis, and statistical analysis of the ALADIN scores. Microarray data from the 31 samples have been deposited in GEO under accession number GSE80342.
ALADIN scores were calculated for all […] using the batch corrected expression data. The CTL, IFN, and KRT ALADIN scores were determined following procedures outlined previously. Briefly, z-scores are calculated for each PSID relative to the mean and standard deviation of normal controls. Scores for each gene are obtained by averaging z-scores of PSIDs mapping to that gene. Signature scores are then calculated averages of the scores for genes belonging to the corresponding signature.
In order to examine possible differences between each of the CTL, IFN, and KRT ALADIN scores in responders and non-responders, in responders and normal controls and in non-responders and normal controls, the inventors tested for differences among the three groups using a Kruskal-Wallis test, followed by Wilcoxon Rank Sum tests as implemented in the coin package in R. The inventors then examined the change between baseline and ALADIN scores at 12 weeks for responders using Wilcoxon Signed Rank test as implemented in the coin package in R. The inventors further tested for differences in the three scores between responders at 12 weeks and normal controls.

[2] = system: patients with moderate to severe AA; assay: Adverse events in ruxolitinib trial; settings: in vivo
Text: (§1) The study's primary efficacy endpoint was the proportion of responders at end of treatment, defined as those subjects achieving at least 50% regrowth compared to baseline assessed by the Severity of Alopecia Tool (SALT) score, a standardized, validated method for estimating hair loss in AA. Secondary efficacy endpoints included hair re-growth as a continuous variable. […] To assess response durability, responders were followed for 3 months after treatment was completed. Safety analysis was included as a secondary endpoint for all subjects who received at least one dose of ruxolitinib and was monitored as described at monthly visits.
Adverse events were assessed at every monthly visit. Patients were also encouraged to contact the study center in the interim between visits if they developed new signs or symptoms of concern.

[3] = system: patients with moderate to severe AA; assay: Open-label trial of oral ruxolitinib in 12 patients with moderate to severe AA: hair regrowth (SALT); assay type: in vivo, human
Text: as §1

[4] = system: patients with moderate to severe AA; assay: Oral ruxolitinib in three patients with moderate to severe AA (hair regrowth, biopsies); assay type: in vivo, human
Protocol: Skin punch biopsies (4 mm) were obtained at baseline and after 12 weeks of treatment.
For immunohistochemical studies of human skin, 5 μM formalin fixed and paraffin skin section were used. […] ImmPRESS HRP Anti Rabbit Ig or Mouse Ig (Peroxidase) Polymer (Vector Lab) were used as secondary antibody.
The IFN and CTL signatures were used to develop a bivariate score statistic. Individual signature IFN and CTL scores were determined following procedures used in human SLE. The sets of genes selected to comprise the IFN and CTL signatures were CD8A, GZMB, and ICOS for the CTL signature, and CXCL9, CXCL10, CXCL11, STAT1, and MX1 for the IFN signature.

[5] = system: C3H/HeJ grafted mice with established AA; assay: Systemic treatment of established AA in grafted C3H/HeJ mice; assay type: in vivo, mouse
Text: C3H/HeJ mouse strain (Jackson Laboratories, Bar Harbor, Me.) was used for all animal studies. Only female mice were used. Mouse recipients of alopecic skin grafts were aged 7-10 weeks at the time of grafting. For prevention experiments, drug administration began the day after grafting. […] For topical treatment studies, drug administration was initiated 20 weeks following grafting. All animal procedures were done according to protocols approved by the Columbia University Medical Center Institutional Animal Care and Use Committee.

[6] = system: C3H/HeJ mice with long-standing AA; assay: Topical treatment of established AA in grafted C3H/HeJ mice; assay type: in vivo, mouse; settings: applied to back skin
Text: This experiment was repeated three times. […] NS, not significant. […] Scale bar, 100 μm. […] Scale bar, 200 μm.
Only female mice were used.

CXCL10 = assay: Serum CXCL10 ELISA in tofacitinib-treated AA patient; assay type: in vivo, human; settings: baseline vs 4 weeks of treatment
Protocol: (§2) Punch biopsies of the scalp (FIG. 17) and blood draws were performed at baseline and after 4 weeks of treatment to monitor gene expression and biomarker changes. […] In addition, microarray analysis was performed on the skin biopsy samples.

[7] = system: ALADIN IFN and CTL signatures; assay: ALADIN scores of scalp biopsies in tofacitinib-treated AA patient; assay type: in vivo, human; settings: baseline vs 4 weeks of treatment
Protocol: as §2

[8] = system: patient with persistent moderate/severe AA; assay: Oral tofacitinib in one patient with persistent moderate/severe AA (hair regrowth, safety)
[9] = system: CTL effectors from C3H/HeJ mice; assay: IL-15 responses in cultured CTL effectors; assay type: cell-based, mouse
dermal sheath cells = assay: CTL killing of dermal sheath cells; assay type: cell-based, mouse
C3H/HeJ grafted mice = assay: Prevention of AA in C3H/HeJ skin graft model, systemic treatment from time of grafting; assay type: in vivo, mouse; settings: systemic administration from the time of grafting
Text: IL-2 and IL-15 are well-known drivers of cytotoxic activity by IFN-γ-producing CD8+ effector T cells and NK cells and have been implicated in the induction and/or maintenance of autoreactive CD8+ T cells. To test the efficacy of IFN-γ- and γ c-targeted therapies in vivo, the inventors used the well-established graft model of AA, in which skin grafts from mice with spontaneous AA are transferred onto the backs of unaffected 10-week-old recipient C3H/HeJ mice. In this model, AA develops reliably in 95-100% of grafted recipients within 6-10 weeks, allowing us to test interventions aimed at either preventing or reversing disease.
C3H/HeJ mouse strain (Jackson Laboratories, Bar Harbor, Me.) was used for all animal studies. Only female mice were used. Mouse recipients of alopecic skin grafts were aged 7-10 weeks at the time of grafting. For prevention experiments, drug administration began the day after grafting. For systemic treatment studies, drug administration was initiated approximately 3 months after mice lost their hair. For topical treatment studies, drug administration was initiated 20 weeks following grafting. […]
For the prevention experiments, a time-to-event survival analysis for interval censored data was performed. […] Hair growth index was calculated.

[10] = systemic therapy initiated 7 weeks after grafting

N#CC[C@H](C1CCCC1)n1cc(-c2ncnc3[nH]ccc23)cn1 [ruxolitinib]
CTL score at week 12, overall ([1]; all patients, baseline 8.30, p<0.004): 1.51 | IFN score at week 12, overall ([1]; all patients, baseline 31.08, p<0.004): −0.37 | KRT score at week 12, overall ([1]; all patients, baseline −39.36, p=0.054): −15.02 | CTL score at week 12, responders only ([1]; baseline 9.37, p<0.008): 1.6 | IFN score at week 12, responders only ([1]; baseline 38.37, p<0.008): 0.24 | KRT score at week 12, responders only ([1]; baseline −37.84, p=0.039): −15.42 | earliest time decreased IFN and CTL scores were demonstrable after the initiation of treatment ([1]; post-treatment biopsies): 2 weeks | URI/allergy symptoms ([2]; human): 9 episodes | GI symptoms [2]: mild GI symptoms | UTI [2]: one UTI | acne or scalp folliculitis [2]: Two patients developed lesions consistent with acne or scalp folliculitis | bacterial skin infections [2]: three minor bacterial skin infections (in the same patient) | conjunctival hemorrhage [2]: one conjunctival hemorrhage following a surgical procedure | discontinuation of therapy [2]: no patients required discontinuation of therapy | hemoglobin [2]: One patient developed lowered hemoglobin, which resolved with dose modification | hepatic abnormalities [2]: No hepatic abnormalities were observed | platelet counts [2]: No significant decline in platelet counts | pneumonia [2]: one mild pneumonia | serious adverse effects [2]: no serious adverse effects | white blood cell counts [2]: modest declines of white blood cell counts initially but levels remained within normal limits | proportion of patients achieving the primary outcome of at least 50% regrowth ([3]; 20 mg PO twice daily, 3 to 6 months, nine of twelve patients): 75% | mean SALT score at 3 months ([3]; baseline 65.8±28.0%): 24.8±22.9% | mean SALT score at the end of 6 months of treatment ([3]; baseline 65.8±28.0%, p<0.004): 7.3±13.5% | average hair regrowth at the end of treatment ([3]; nine responding patients): 92% | reduction in hair loss from baseline, responders as a group ([3]; responders): 92% | regrowth achieved ([4]; oral 20 mg BID for at least 3 months): over 90% | time to near-complete hair regrowth ([4]; oral, 20 mg twice daily): 3 to 5 months

C[C@@H]1CCN(C(=O)CC#N)C[C@@H]1N(C)c1ncnc2[nH]ccc12 [tofacitinib]
persistence of effects after the cessation of treatment ([5]; systemic therapy): 2-3 months | frequency of CD8+NKG2D+ T cells [5, 10]: reduced the frequency of CD8+NKG2D+ T cells | hair regrowth [5, 10]: substantial hair regrowth all over the body | histological markers [5, 10]: reversed histological markers | reversal of disease in treated lesions [6]: highly effective in reversing disease in treated lesions | serum levels of CXCL10 (CXCL10): decreased after 4 weeks of treatment | IFN and CTL signatures (ALADIN) [7]: decreased by 4 weeks of treatment, although not to the level of normal controls | hair loss 8 weeks following cessation of treatment ([8]; FIG. 16 left panel): Minimal hair loss | hair loss 16 weeks following cessation of treatment ([8]; FIG. 16 right panel): almost complete loss of scalp hair | outcome after cessation of treatment ([8]; human, in vivo): near-complete hair loss | adverse events ([8]; oral 5 mg twice daily): no adverse events reported | hair regrowth at month 1 ([8]; oral 5 mg twice daily): Patchy regrowth | laboratory abnormalities (complete blood count, complete metabolic panel, lipid profile) ([8]; oral 5 mg twice daily): no laboratory abnormalities | regrowth of eyebrows and eyelashes ([8]; oral 5 mg twice daily): Significant regrowth | scalp hair regrowth 4 months after initiating treatment ([8]; oral 5 mg twice daily): nearly complete | scalp hair regrowth after three months of treatment ([8]; oral 5 mg twice daily): 94% | scalp hair regrowth after two months of treatment ([8]; oral 5 mg twice daily): 62.5% | IL-15-induced upregulation of granzyme B and IFN-γ expression [9]: blocked | IL-15-triggered pSTAT5 activation ([9]; cultured CTL effectors): blocked | killing of dermal sheath cells (dermal sheath cells): blocked | AA development in grafted recipients (C3H/HeJ grafted mice): prevented the development of AA | CD8+NKG2D+ T cells in the skin (infiltration, accumulation, expansion) (C3H/HeJ grafted mice): prevented
